Where a name gives a salt, the structure may show the parent alone. Read-outs that look alike come from different tables or passages of the source.
Tests used:
[1] = biological target: T1, recombinant human SOS1 polypeptide (amino acids 560-1049) (Homo sapiens, UniProt Q07889); assay: HTRF displacement assay: inhibition of labeled tracer binding to SOS1
T1 construct: corresponding to amino acids 560-1049, expressed in E. Coli; made in house; host or cells: E. coli
T1 sequence (Q07889 560-1049): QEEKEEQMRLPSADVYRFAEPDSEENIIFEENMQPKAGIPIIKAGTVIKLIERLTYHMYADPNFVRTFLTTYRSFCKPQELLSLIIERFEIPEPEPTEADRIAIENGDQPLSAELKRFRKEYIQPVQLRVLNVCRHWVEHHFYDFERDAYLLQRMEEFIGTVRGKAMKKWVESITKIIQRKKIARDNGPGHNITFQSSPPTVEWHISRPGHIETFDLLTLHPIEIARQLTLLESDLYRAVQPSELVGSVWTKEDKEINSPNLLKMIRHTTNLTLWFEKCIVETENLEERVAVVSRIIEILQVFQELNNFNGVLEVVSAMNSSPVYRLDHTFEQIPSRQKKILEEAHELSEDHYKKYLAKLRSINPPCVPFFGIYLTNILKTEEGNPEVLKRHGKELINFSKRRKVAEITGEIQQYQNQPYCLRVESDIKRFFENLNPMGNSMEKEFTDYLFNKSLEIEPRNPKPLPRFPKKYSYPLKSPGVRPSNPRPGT

[2] = tested on: pERK in MKN1 cells; assay: pERK inhibition, In-Cell Western (LI-COR Odyssey), MKN1 cells; assay type: cell-based; details: MKN1 or H358 cells (table does not say which), 0.5-1 hour incubation, read-out: IC50 (nM), pERK inhibition
Method: This Example illustrates that exemplary compounds of the present invention prevent KRas-mediated GTP nucleotide exchange mediated by SOS1 to inhibit KRas activity thereby inhibiting the generation of the downstream effector pERK.
MKN1 cells (15,000/w) or H358 (30,000/w) were seeded in a black clear flat bottom 96-well cell culture plate (Corning, #3904) and incubated at 37° C. overnight. Assay day 1, cells were dosed with compounds of Formula (I) with a 10 μm starting concentration and serially diluted 3× for a total of 9 concentrations. The cells were incubated for approximately 0.5-1 hour with the compounds solubilized in DMSO at 37° C. Cells were immediately fixed by adding 50 μL of 4% formaldehyde to all wells in a fume hood and the plates were incubated for 20 minutes at room temperature. The formaldehyde was discarded from the plates and 150 μL of ice-cold methanol was added to permeabilize the cells for 10 minutes at −20° C. The methanol was discarded from each of the plates and any liquid remaining in the plate by tapping the plate against paper towels. Cells were then blocked with 150 μL of Odyssey blocking buffer (LI-COR Biosciences #927-50010) using 0.05% Tween for 1 hour at room temperature on a shaker. The blocking buffer was discarded and 50 μL of primary antibodies pERK (cell signaling Technology #9101L; Rabbit, 1:500) and GapDH (Millipore #MAB34; Mouse, 1:5000) diluted in Odyssey blocking buffer was added. The plates were incubated overnight at 4° C. on a shaker.
On Assay day 2, the primary antibody solution was removed. Each plate was washed 3× times with 150 μL of 1×PBST (PBS+0.1% Tween 20) and incubated with 50 μL of secondary antibodies: Anti-Rabbit (LI-COR Biosciences #926-32211) and Anti-Mouse (LI-COR Biosciences #68070) at 1:800 dilution in Odyssey blocking buffer with Tween at room temperature on a shaker for 2 hours (protected from light). The secondary antibody solution as removed and each plate was washed with PBST 3× times. Any liquid remaining was discarded and the plate was imaged using the Licor Odyssey machine according to the manufacturer's instruction, using a set focus length at 3 mm and both 800 nm and 700 nm filters. The GAPDH normalized scan values for each well were divided by the average of vehicle wells to get the % of pERK inhibition. The IC50 values were then calculated with the Graph pad Prism software.

[3] = Table A, Morrison equation for competitive binding
[4] = Table A1, Morrison equation for competitive binding

Question: `Cc1c(C#N)cccc1[C@@H](C)Nc1nnc(C)c2cnc(N3C[C@H]4CCCN[C@H]4C3)cc12` (single isomer, unassigned) [Example 6-3] was tested. Which Ki [1, 3] did it give?
Answer: 0.992 nM

Question: What about the IC50 ([2]; Homo sapiens, MKN-1, Table B) of the same molecule?
Answer: 73 nM

Question: What does the source list for `Cc1c(C#N)cccc1[C@@H](C)Nc1nnc(C)c2cnc(N3C[C@@H]4CCCN[C@@H]4C3)cc12` (single isomer, unassigned) [Example 6-4]?
Answer: Ki [1, 3]: 2.74 nM; IC50 ([2]; Homo sapiens, MKN-1, Table B): 194 nM

Question: `Cc1c(C#N)cccc1[C@@H](C)Nc1nnc(C)c2cnc(N3C[C@H]4CCCN(C)[C@H]4C3)cc12` (single isomer, unassigned) [Example 6-5] was tested. Which Ki [1, 3] did it give?
Answer: 1.12 nM

Question: And the IC50 ([2]; Homo sapiens, MKN-1, Table B)?
Answer: 85.2 nM

Question: How did the Ki [1, 3] turn out when `Cc1c(C#N)cccc1[C@@H](C)Nc1nnc(C)c2cnc(N3C[C@@H]4CCCN(C)[C@@H]4C3)cc12` (single isomer, unassigned) [Example 6-6] was run?
Answer: 1.36 nM

Question: And the IC50 ([2]; Homo sapiens, MKN-1, Table B)?
Answer: 80.6 nM

Question: Which Ki [1, 3] does the source give for `Cc1c(C#N)cccc1[C@@H](C)Nc1nnc(C)c2cnc(N3C[C@@H]4[C@H]3CCN4C)cc12` (single isomer, unassigned) [Example 6-8] here?
Answer: 0.808 nM

Question: And the IC50 ([2]; Table B)?
Answer: 33.8 nM

Question: With `Cc1c(C#N)cccc1[C@@H](C)Nc1nnc(C)c2cnc(N3C[C@H]4[C@@H]3CCN4C)cc12` (single isomer, unassigned) [Example 6-9] as the molecule, how does the Ki [1, 3] read?
Answer: 2.12 nM

Question: And the IC50 ([2]; Table B)?
Answer: 69.4 nM

Question: With `Cc1c(C#N)cccc1[C@@H](C)Nc1nnc(C)c2cnc(N3CC[C@@H]4[C@H]3CN4C)cc12` (single isomer, unassigned) [Example 6-10] as the molecule, how does the Ki [1, 3] read?
Answer: 0.872 nM

Question: What about the IC50 ([2]; Homo sapiens, MKN-1, Table B) of the same molecule?
Answer: 44.4 nM

Question: For `Cc1c(C#N)cccc1[C@@H](C)Nc1nnc(C)c2cnc(N3CC[C@H]4[C@@H]3CN4C)cc12` (single isomer, unassigned) [Example 6-11], which Ki [1, 3] is on record?
Answer: 2.78 nM

Question: And the IC50 ([2]; Homo sapiens, MKN-1, Table B)?
Answer: 199 nM

Question: For `Cc1c(C#N)cccc1[C@@H](C)Nc1nnc(C)c2cnc(N3C[C@H]4[C@@H]3CCN4C)cc12` (single isomer, unassigned) [Example 6-12], which Ki [1, 3] is on record?
Answer: 0.24 nM

Question: And the IC50 ([2]; Table B)?
Answer: 13.7 nM

Question: How did the Ki [1, 3] turn out when `Cc1c(C#N)cccc1[C@@H](C)Nc1nnc(C)c2cnc(N3C[C@@H]4[C@H]3CCN4C)cc12` (single isomer, unassigned) [Example 6-13] was run?
Answer: 0.615 nM

Question: And the IC50 ([2]; Table B)?
Answer: 16.3 nM

Question: What does the source list for `Cc1c(C#N)cccc1[C@@H](C)Nc1nnc(C)c2cc(F)c(N3C[C@H]4[C@@H]3CCN4C)cc12` (single isomer, unassigned) [Example 9-1]?
Answer: Ki [1, 3]: 1 nM; IC50 ([2]; Homo sapiens, MKN-1, Table B): 15.5 nM

Question: How did the Ki [1, 3] turn out when `Cc1c(C#N)cccc1[C@@H](C)Nc1nnc(C)c2cc(F)c(N3C[C@@H]4[C@H]3CCN4C)cc12` (single isomer, unassigned) [Example 9-2] was run?
Answer: 2 nM

Question: What about the IC50 ([2]; Homo sapiens, MKN-1, Table B) of the same molecule?
Answer: 30 nM

Question: How did the Ki [1, 3] turn out when `CCN(c1cc2c(N[C@H](C)c3cccc(C#N)c3C)nnc(C)c2cn1)C1CCN(C)C1` (stereo in doubt) [Example 1-104, 3-((R)-1-((7-(ethyl((S)-1-methylpyrrolidin-3-yl)amino)-4-methylpyrido[3,4-d]pyridazin-1-yl)amino)ethyl)-2-methylbenzonitrile] was run?
Answer: 0.901 nM

Question: What about the IC50 ([2]; Table B) of the same molecule?
Answer: 75.5 nM

Question: `Cc1c(C#N)cccc1[C@@H](C)Nc1nnc(C)c2cnc(N3CC(C)(N4CCC4)C3)cc12` [Example 1-1, (R)-2-methyl-3-(1-((4-methyl-7-(3′-methyl-[1,3′-biazetidin]-1′-yl)pyrido[3,4-d]pyridazin-1-yl)amino)ethyl)benzonitrile] was tested. Which Ki [1, 3] did it give?
Answer: 1.59 nM

Question: And the IC50 ([2]; Homo sapiens, MKN-1, Table B)?
Answer: 104 nM

Question: With `CCN(CC)C1(C)CN(c2cc3c(N[C@H](C)c4cccc(C#N)c4C)nnc(C)c3cn2)C1` [Example 1-2, (R)-3-(1-((7-(3-(diethylamino)-3-methylazetidin-1-yl)-4-methylpyrido[3,4-d]pyridazin-1-yl)amino)ethyl)-2-methylbenzonitrile] as the molecule, how does the Ki [1, 3] read?
Answer: 2.22 nM

Question: And the IC50 ([2]; Homo sapiens, MKN-1, Table B)?
Answer: 126 nM

Question: Which results are given for `CN[C@H]1CCN(c2cc3c(N[C@H](C)c4cccc(C#N)c4C)nnc(C)c3cn2)C1` [Example 1-3, 2-methyl-3-((R)-1-((4-methyl-7-((S)-3-(methylamino)pyrrolidin-1-yl)pyrido[3,4-d]pyridazin-1-yl)amino)ethyl)benzonitrile]?
Answer: Ki [1, 3]: 1.42 nM; IC50 ([2]; Homo sapiens, MKN-1, Table B): 95.1 nM

Question: `Cc1c(C#N)cccc1[C@@H](C)Nc1nnc(C)c2cnc(N3CC(C)(N4CCCC4)C3)cc12` [Example 1-4, (R)-2-methyl-3-(1-((4-methyl-7-(3-methyl-3-(pyrrolidin-1-yl)azetidin-1-yl)pyrido[3,4-d]pyridazin-1-yl)amino)ethyl)benzonitrile] was tested. Which Ki [1, 3] did it give?
Answer: 1.22 nM

Question: What about the IC50 ([2]; Homo sapiens, MKN-1, Table B) of the same molecule?
Answer: 62.6 nM

Question: With `Cc1nnc(N[C@H](C)c2cccc(C(F)F)c2F)c2cc(N3CCN(C)CC3)c(C#N)cc12` [Example 6-22, (R)-1-((1-(3-(difluoromethyl)-2-fluorophenyl)ethyl)amino)-4-methyl-7-(4-methylpiperazin-1-yl)phthalazine-6-carbonitrile] as the molecule, how does the Ki [1, 3] read?
Answer: 1.49 nM

Question: Which Ki [1, 3] does the source give for `Cc1c(C#N)cccc1[C@@H](C)Nc1nnc(C)c2cc(Br)c(N3CCN(C)CC3)cc12` [Example 8-1, (R)-3-(1-((6-bromo-4-methyl-7-(4-methylpiperazin-1-yl)phthalazin-1-yl)amino)ethyl)-2-methylbenzonitrile] here?
Answer: 2.4 nM

Question: For `Cc1c(C#N)cccc1[C@@H](C)Nc1nnc(CO)c2cnc(N3CCOCC3)cc12` [Example P-201, (R)-3-(1-((4-(hydroxymethyl)-7-morpholinopyrido[3,4-d]pyridazin-1-yl)amino)ethyl)-2-methylbenzonitrile formic acid salt], which Ki [1, 4] is on record?
Answer: 6.36 nM

Question: For `Cc1c(C#N)cccc1[C@@H](C)Nc1nnc(C=O)c2cnc(N3CCOCC3)cc12` [Example P-202, (R)-3-(1-((4-formyl-7-morpholinopyrido[3,4-d]pyridazin-1-yl)amino)ethyl)-2-methylbenzonitrile], which Ki [1, 4] is on record?
Answer: 49.7 nM

Question: Which Ki [1, 4] does the source give for `Cc1c(C#N)cccc1[C@@H](C)Nc1nnc(C)c2cnc(N3CCOC(=O)C3)cc12` [Example P-203, (R)-2-methyl-3-(1-((4-methyl-7-(2-oxomorpholino)pyrido[3,4-d]pyridazin-1-yl)amino)ethyl)benzonitrile] here?
Answer: 26.1 nM

Question: How did the Ki [1, 4] turn out when `Cc1c(C#N)cccc1[C@@H](C)Nc1nnc(C)c2cnc(N3CCOCC3=O)cc12` [Example P-204, (R)-2-methyl-3-(1-((4-methyl-7-(3-oxomorpholino)pyrido[3,4-d]pyridazin-1-yl)amino)ethyl)benzonitrile] was run?
Answer: 139 nM

Question: For `Cc1c(C#N)cccc1[C@@H](C)Nc1nnc(C)c2cnc(OCCOCCN3C(=O)CCC(N4C(=O)c5cccc(O)c5C4=O)C3=O)cc12` (stereo partly drawn) [Example P-207, 3-((1R)-1-((7-(2-(2-(3-(4-hydroxy-1,3-dioxoisoindolin-2-yl)-2,6-dioxopiperidin-1-yl)ethoxy)ethoxy)-4-methylpyrido[3,4-d]pyridazin-1-yl)amino)ethyl)-2-methylbenzonitrile], which Ki [1, 4] is on record?
Answer: 865 nM

Question: `Cc1c(C#N)cccc1[C@@H](C)Nc1nnc(C)c2cnc(OCCOCCOc3cccc4c3C(=O)N(C3CCC(=O)NC3=O)C4=O)cc12` (stereo partly drawn) [Example P-208, 3-((1R)-1-((7-(2-(2-((2-(2,6-dioxopiperidin-3-yl)-1,3-dioxoisoindolin-4-yl)oxy)ethoxy)ethoxy)-4-methylpyrido[3,4-d]pyridazin-1-yl)amino)ethyl)-2-methylbenzonitrile] was tested. Which Ki [1, 4] did it give?
Answer: 427 nM

Question: With `Cc1c(C#N)cccc1[C@@H](C)Nc1nnc(C)c2cnc(OCCNC(=O)CCOC34CC5CC(CC(C5)C3)C4)cc12` [Example P-209, 3-(((3s,5s, 7s)-adamantan-1-yl)oxy)-N-(2-((1-(((R)-1-(3-cyano-2-methylphenyl)ethyl)amino)-4-methylpyrido[3,4-d]pyridazin-7-yl)oxy)ethyl)propanamide] as the molecule, how does the Ki [1, 4] read?
Answer: 542 nM

Source: US20250059182A1, “SOS1 INHIBITORS” (Mirati Therapeutics, Inc., priority 2021, published 2025)
